Measurements: patent US7473683B2, “Nonpolar thymidine analogs” (The Board of Trustees of the Leland Stanford Junior …, priority 2005, dated 2009)

What was measured:
[1] = system: DNA Pol I (Klenow fragment, exo-); experiment: steady-state kinetics of single nucleotide insertions, thymidine analogues in the template; assay type: biochemical, E. coli; set-up: efficiency: unit not given here; conditions: for Km / Vmax / efficiency / Rel. efficiency: Example 4: incorporating dATP opposite template thymidine analog; for Rel. efficiency: T template = 1; for efficiency as analog of thymidine in a template strand (summary): Example 4, dATP insertion
Method: (§1) In vitro steady-state kinetics. As polymerase substrates we used 28 mer/23 mer template-primer duplexes having the sequence (5′-ACT GXT CTCCCTATAGTGAGTCGTATTA [SEQ ID NO:1])·(5′-TAATACGACTCACTATAGGGAGA [SEQ ID NO:2]). Kinetics were measured at 37° C. in a buffer containing 10 mM Mg^2+. The primer was 5′ end-labeled and was extended by the polymerase in the presence of a single dNTP species over varied concentration and time. Products of single nucleotide insertions were resolved from unreacted primer by 20% denaturing gel electrophoresis, and were quantitated by autoradiography. Details of the kinetics experiments are given in the Supporting Data.
(§2) We chose DNA polymerase I (Klenow fragment, exonuclease-deficient) as an ideal candidate for initial study, as it is enzymatically well-characterized among replicative enzymes, and yet is relatively small and acts as a single subunit. We carried out kinetics studies of single nucleotide insertions in the steady state, using a gel electrophoresis-based assay.
(§3) Data for single nucleotide insertion kinetics in the steady-state. The enzyme was the Klenow fragment of DNA pol I from E. coli (exonuclease deficient). Methods are as described above.

[2] = system: DNA Pol I (Klenow fragment, exo-); experiment: steady-state kinetics of single nucleotide insertions, incoming nucleotide analogues (dNTP/dXTP); assay type: biochemical, E. coli; conditions: for rel. efficiency: relative to insertion of dTTP opposite A
Method: as §1, §2, §3

[3] = dNTP inserted opposite template base A, 37° C.
[4] = dNTP inserted opposite template base A, 37° C., 10 mM MgCl2, pH 7.5, normalized to lowest enzyme concentration
[5] = dNTP inserted opposite template base A
[6] = dNTP inserted opposite template base C, 37° C.
[7] = dNTP inserted opposite template base C, 37° C., 10 mM MgCl2, pH 7.5, normalized to lowest enzyme concentration
[8] = dNTP inserted opposite template base C
[9] = dNTP inserted opposite template base G, 37° C.
[10] = dNTP inserted opposite template base G, 37° C., 10 mM MgCl2, pH 7.5, normalized to lowest enzyme concentration
[11] = dNTP inserted opposite template base G
[12] = dNTP inserted opposite template base T, 37° C.
[13] = dNTP inserted opposite template base T, 37° C., 10 mM MgCl2, pH 7.5, normalized to lowest enzyme concentration
[14] = dNTP inserted opposite template base T
[15] = Example 4: incorporating dXTP opposite adenine in a DNA template

| Structure (SMILES) | Km [1] [µM] | Vmax [1] | efficiency [1] | Rel. efficiency [1] | Km [2, 3] [µM] | Vmax [2, 4] [% · min^−1] | rel. efficiency [2, 5] | Km [2, 6] [µM] | Vmax [2, 7] [% · min^−1] | rel. efficiency [2, 8] | Km [2, 9] [µM] | Vmax [2, 10] [% · min^−1] | rel. efficiency [2, 11] | Km [2, 12] [µM] | Vmax [2, 13] [% · min^−1] | rel. efficiency [2, 14] | further results |
| --- | --- | --- | --- | --- | --- | --- | --- | --- | --- | --- | --- | --- | --- | --- | --- | --- | --- |
| Cc1cc([C@H]2C[C@@H](O)[C@@H](CO)O2)cc(Cl)c1Cl [3,4-di-C] | 55 ± 24 | 0.4291 ± 0.1095 | (8.30 ± 1.55) × 10^3 | 4.5 × 10^−4 | – | – | – | – | – | – | – | – | – | – | – | – | – |
| Cc1cc(C2CC(O)C(COP(=O)(O)OP(=O)(O)OP(=O)(O)O)O2)c(Br)cc1Br (centres unmarked) [dBTP] | – | – | – | – | 23 ± 6 | 13 ± 2 | 3.6 × 10^−2 | 74 ± 22 | 0.016 ± 0.001 | 1.4 × 10^−5 | 50 ± 10 | 0.0094 ± 0.0004 | 1.2 × 10^−5 | 38 ± 21 | 0.8 ± 0.16 | 1.3 × 10^−3 | – |
| Cc1cc(Cl)cc([C@H]2C[C@@H](O)[C@@H](CO)O2)c1 [3C] | 51.9 ± 1.9 | 0.4378 ± 0.1116 | (8.62 ± 0.85) × 10^3 | 4.6 × 10^−4 | – | – | – | – | – | – | – | – | – | – | – | – | – |
| Cc1cccc(C2CC(O)C(COP(=O)(O)OP(=O)(O)OP(=O)(O)O)O2)c1 (centres unmarked) [dHTP] | – | – | – | – | 110 ± 20 | 0.11 ± 0.20 | 6.3 × 10^−5 | 310 ± 170 | 0.0067 ± 0.0023 | 1.4 × 10^−6 | 200 ± 90 | 0.0065 ± 0.0016 | 2.0 × 10^−6 | 59 ± 27 | 0.0046 ± 0.0011 | 4.9 × 10^−6 | – |
| Cc1cccc(C2CC(O)C(CO)O2)c1 (centres unmarked) [dH] | – | – | – | – | – | – | – | – | – | – | – | – | – | – | – | – | fidelity (efficiency of correct T analog:A pair divided by efficiency of the most efficient mismatch) ([1]; varied-size template nucleoside mimics, insertion of dATP vs mismatch): 45 |
| Cc1cc([C@H]2C[C@@H](O)[C@@H](CO)O2)ccc1Cl [2H4C] | 31.5 ± 8.91 | 2.8214 ± 0.5396 | (9.81 ± 1.58) × 10^4 | 5.3 × 10^−3 | – | – | – | – | – | – | – | – | – | – | – | – | – |
| Cc1cc(C2CC(O)C(COP(=O)(O)OP(=O)(O)OP(=O)(O)O)O2)c(F)cc1F (centres unmarked) [dFTP, reference compound] | – | – | – | – | 29 ± 10 | 2.9 ± 0.1 | 6.3 × 10^−3 | 200 ± 110 | 0.012 ± 0.004 | 3.8 × 10^−6 | 300 ± 120 | 0.0067 ± 0.0017 | 1.4 × 10^−6 | 37 ± 15 | 0.0066 ± 0.0010 | 1.1 × 10^−5 | – |
| Cc1cn([C@H]2C[C@H](O)[C@@H](COP(=O)(O)OP(=O)(O)OP(=O)(O)O)O2)c(=O)[nH]c1=O [dTTP, reference compound] | – | – | – | – | 1.9 ± 0.4 | 30 ± 3 | 1 | 510 ± 400 | 0.067 ± 0.040 | 6.3 × 10^−6 | 140 ± 86 | 0.42 ± 0.18 | 2.5 × 10^−4 | 63 ± 18 | 0.010 ± 0.002 | 1.0 × 10^−5 | Km [2, 15]: 1.56 ± 1 µM; Vmax [2, 15]: 30.70 ± 12.0; efficiency [2, 15]: (2.29 ± 0.9) × 10^7; Rel. efficiency ([2]; Example 4: incorporating dXTP opposite adenine in a DNA template, dTTP = 1): 1 |
| Cc1cc(C2CC(O)C(COP(=O)(O)OP(=O)(O)OP(=O)(O)O)O2)c(Cl)cc1Cl (centres unmarked) [dLTP] | – | – | – | – | 18 ± 5 | 39 ± 4 | 1.4 × 10^−1 | 160 ± 66 | 0.050 ± 0.010 | 1.9 × 10^−5 | 110 ± 30 | 0.035 ± 0.004 | 2.0 × 10^−5 | 62 ± 21 | 0.54 ± 0.10 | 5.4 × 10^−4 | efficiency lower than for insertion of natural dTTP ([2]; dNTP analog inserted opposite adenine): 7 fold |
| Cc1cc([C@H]2C[C@@H](O)[C@@H](CO)O2)c(Cl)cc1Br [2C4B] | 4.18 ± 0.47 | 30.4709 ± 0.8544 | (7.38 ± 1.07) × 10^6 | 4.0 × 10^−1 | – | – | – | – | – | – | – | – | – | – | – | – | efficiency as analog of thymidine in a template strand (summary) [1]: probably as good |
| Cc1cc([C@H]2C[C@@H](O)[C@@H](CO)O2)c(F)cc1Cl [2F4C] | 7.51 ± 2.79 | 49.7002 ± 1.5432 | (7.13 ± 2.13) × 10^6 | 3.8 × 10^−1 | – | – | – | – | – | – | – | – | – | – | – | – | efficiency as analog of thymidine in a template strand (summary) [1]: probably as good |
| Cc1cc([C@H]2C[C@@H](O)[C@@H](CO)O2)c(Cl)cc1Cl [2C4C, 2,4-dichlorotoluene] | – | – | – | – | – | – | – | – | – | – | – | – | – | – | – | – | efficiency as analog of thymidine in a template strand (summary) [1]: most efficient analog overall |
| Cc1cc(C2CC(O)C(COP(=O)(O)OP(=O)(O)OP(=O)(O)O)O2)c(I)cc1I (centres unmarked) [dITP] | – | – | – | – | 18 ± 2 | 1.8 ± 0.1 | 6.3 × 10^−3 | 23 ± 1 | 0.0023 ± 0.0004 | 6.3 × 10^−6 | 43 ± 7 | 0.0020 ± 0.0001 | 2.9 × 10^−6 | 37 ± 7 | 0.23 ± 0.02 | 3.9 × 10^−4 | – |
